Values of other authors as cited in patent US20190263927A1, “COMBINATION OF A PD-1 ANTAGONIST AND ERIBULIN FOR TREATING UROTHELIAL CANCER” (Merck Sharp & Dohme Corp., priority 2016, published 2019).

System: patients with metastatic UC (mUC)
Conditions: eribulin monotherapy; patients with metastatic/advanced UC; NCI Protocol No. 7435

C=C1C[C@@H]2CC[C@@]34C[C@H]5O[C@H]6[C@@H](O3)[C@H]3O[C@H](CC[C@@H]3O[C@H]6[C@H]5O4)CC(=O)C[C@@H]3[C@@H](OC)[C@@H](C[C@H](O)CN)O[C@H]3C[C@H]3O[C@@H](CC[C@@H]1O2)C[C@@H](C)C3=C [Eribulin]
clinical benefit for treatment of patients with mUC: provide clinical benefit
